Results taken from US20140017339A1, “MATERIALS AND METHODS FOR TREATING RADIATION POISONING” (priority 2010, published 2014).

Columns and labels:
[1] = system: marrow HPC of irradiated mice; assay: Colony assays: total CFC (CFU-GM, BFU-E, CFU-GEMM) per femur after irradiation; assay type: in vivo, C57B1/6 mice
Procedure: After 30 days, analysis of total CFC(CFU-GM, BFU-E and CFU-GEMM) was performed in methylcellulose culture. Referring now to FIG. 2B, data are Mean±SEM from N=5 mice per group, each assayed individually.
Irradiated mice were identified by ear punches and treated with either a single subcutaneous dose of dmPGE2 (40 μg/mouse) or vehicle control at 6 hours post-irradiation (N=20 mice per group, evenly split male/female); 6 mg/kg meloxicam dosed once daily on days 2 through 5 post-irradiation or vehicle control (N=20 or 40 mice per group, respectively, evenly split male/female); or a single subcutaneous dose of CoCl2 (60 mg/kg) at 6 hours post-irradiation (N=20 mice per group, evenly split male/female). One mouse per treatment group was housed in each individual cage.
After 35 days, remaining irradiated mice were sacrificed, bone marrow acquired from femurs, and total CFC including CFU-GM, BFU-E and CFU-GEMM were enumerated in 1% methylcellulose/IMDM containing 30% HI-FBS, 1 U/ml rhEPO, 10 ng/ml rhGM-CSF and 50 ng/ml rmSCF as described (Broxmeyer et al., 2007; Fukuda et al., 2007). All cultures were established in triplicate from individual animals, incubated at 37° C., 5% CO2, 5% O2 in air for 7 days and colonies quantified by microscopy.
Referring now to FIG. 2B, after 30 days, analysis of total CFC(CFU-GM, BFU-E and CFU-GEMM) was performed in methylcellulose culture. Data are Mean±SEM from N=5 mice per group, each assayed individually.

[2] = system: irradiated mice (796 cGys, LD50); assay: 30-day survival after irradiation, murine HS-ARS model; assay type: in vivo, C57B1/6 mice; settings: 30 days
Procedure: Male and female C57B1/6 mice were purchased from Jackson Laboratories at 10-12 weeks of age. Mice were housed in microisolator cages (5 mice per cage) with sterilized direct contact bedding (Alpha Dri). Animal holding rooms were maintained at 21±3° C. with 30 to 80% relative humidity, with at least 10 air changes per hour of 100% fresh air, and a 12-hour light/dark cycle. Mice were fed ad libitum with commercial rodent chow (Harlan 2018SXC) in cage hoppers and acidified (pH 2.0-3.0) water in sipper tube bottles. The Institutional Animal Care and Use Committee of IUSM approved all protocols.
Mice were placed in single chambers of a plexiglass irradiation pie (Braintree), with 15 mice per pie, alternating groups of males and females within the same pie. The mice in each group of mice, irradiated together in the same pie, were divided equally among all treatment groups to ensure that each group received the same irradiation exposure conditions. […]
Cohorts of 20-40 mice were irradiated with an LD50 dose from a ^137Cs source. […] Animals were monitored for morbidity and mortality twice/daily for 30 days and euthanized when moribund. Referring now to FIG. 2A, survival curves were analyzed with a log-rank test. […]
Moribund mice were scored for signs of early euthanasia based on three parameters: the severity of hunched posture, squinted/closed eyes, and decreased activity. Each criterion was scored on a scale of 1 to 3, with 3 being the most severe. Moribund mice with a score of 8 or 9 were euthanized and the date of death was recorded.
Irradiated mice with therapeutic exogenously provided amounts of PGE2 mitigated the damage to hematopoietic cells observed post-irradiation with dmPGE2 treatment, using a murine HS-ARS model developed by Dr. Orschell at IUSM. […] Animals were monitored for morbidity and mortality twice/daily for 30 days and euthanized when moribund. Survival curves were analyzed with a log-rank test.

[3] = system: HSC; settings: WO 2010/054271, cited from earlier work
[4] = system: bone marrow HPC; assay: NSAID effect on bone marrow progenitor cell expansion in non-irradiated mice (CFU-GM); assay type: in vivo; settings: NSAID twice daily for 4 days, assayed on day 5
Procedure: Mice were administered dual (Indomethacin, meloxicam), COX2 selective (Valdecoxib) or COX1 selective (SC560) inhibitors twice daily for 4 days. Referring now to FIG. 1, on day 5, mice were sacrificed, bone marrow from one femur isolated, total nucleated cells counted on a Hemavet 950FS and CFU-GM determined. Data are Mean±SEM for N=5 mice per group, each assayed individually.

Question: What does the source list for `[Cl][Co][Cl]` [CoCl2, cobalt chloride]?
Answer: CFC in bone marrow ([1]; single subcutaneous dose 60 mg/kg at 6 hours post-irradiation, day 35): significantly increased CFC in bone marrow; percent survival ([2]; single subcutaneous dose 60 mg/kg at 6 hours post-irradiation, P=0.0011): 95%

Question: Which “homing/engraftment in bone marrow transplants” value [3] does the source give for `CCCCC[C@H](O)/C=C/[C@H]1[C@H](O)CC(=O)[C@@H]1C/C=C\CCCC(=O)O` [PGE2, prostaglandin E2] here?
Answer: increased homing/engraftment

Question: What about the “apoptosis of HSC” value ([3]; through up-regulation of Survivin) of the same compound?
Answer: decreased apoptosis

Question: For `CCCCC(C)(C)[C@H](O)/C=C/[C@H]1[C@H](O)CC(=O)[C@@H]1C/C=C\CCCC(=O)O` [dmPGE2, 16,16 dimethyl prostaglandin E2], which “marrow HPC (total CFC per femur) versus control irradiated mice” value ([1]; single subcutaneous dose 40 μg/mouse at 6 hours post-irradiation, 796 cGys, day 35) is on record?
Answer: significantly higher than control irradiated mice

Question: And the percent survival ([2]; single subcutaneous dose 40 μg/mouse at 6 hours post-irradiation, 796 cGys, control 50% survival, P=0.0011)?
Answer: 95%

Question: Which results are given for `Cc1cnc(NC(=O)C2=C(O)c3ccccc3S(=O)(=O)N2C)s1` [meloxicam, 4-hydroxy-2-methyl-N-(5-methyl-2-thiazolyl)-2H-1,2-benzothiazine-3-carboxamide-1,1-dioxide]?
Answer: bone marrow CFC content versus control ([1]; 6 mg/kg once daily on days 2 through 5 post-irradiation, femurs 35 days post-irradiation): significantly increased bone marrow CFC content compared to control; percent survival ([2]; 6 mg/kg once daily on days 2 through 5 post-irradiation, control 50% survival, P=0.034): 80%; HPC expansion in bone marrow [4]: increase HPCs within the bone marrow
